According to ChEMBL document CHEMBL4811263, “Tulipiferamide A, an Alkamide from Liriodendron tulipifera, Exhibits an Anti-Inflammatory Effect via Targeting IKKβ Phosphorylation” (J Nat Prod, 2021):
Values belong to the molecule of their own block, whether it stands above or below them. Calls of active or inactive are those of the source. No cut-off for these calls is given here.

Tests used:
[1] = Inhibition of LPS-indued NF-kappaB activation in mouse RAW264.7 cells preincubated for 30 mins followed by LPS stimulation and measured after 10 hrs by luciferase assay; assay type: cell-based
RAW264.7 [2] = assay: Antiinflammatory activity in mouse RAW264.7 assessed as inhibition of LPS-induced NO production preincubated for 30 mins followed by LPS stimulation measured after 24 hrs by Griess reagent based assay; assay type: functional, cell-based
[3] = target: T1, Inhibitor of nuclear factor kappa-B kinase subunit alpha (Mus musculus) (UniProt Q60680); assay: Inhibition of IKKalpha mediated NF-kappaB activation in mouse RAW264.7 cells assessed as reduction TWEAK-induced processing of p100 to p52 by Western blotting analysis; assay type: cell-based
T1 sequence (whole entry): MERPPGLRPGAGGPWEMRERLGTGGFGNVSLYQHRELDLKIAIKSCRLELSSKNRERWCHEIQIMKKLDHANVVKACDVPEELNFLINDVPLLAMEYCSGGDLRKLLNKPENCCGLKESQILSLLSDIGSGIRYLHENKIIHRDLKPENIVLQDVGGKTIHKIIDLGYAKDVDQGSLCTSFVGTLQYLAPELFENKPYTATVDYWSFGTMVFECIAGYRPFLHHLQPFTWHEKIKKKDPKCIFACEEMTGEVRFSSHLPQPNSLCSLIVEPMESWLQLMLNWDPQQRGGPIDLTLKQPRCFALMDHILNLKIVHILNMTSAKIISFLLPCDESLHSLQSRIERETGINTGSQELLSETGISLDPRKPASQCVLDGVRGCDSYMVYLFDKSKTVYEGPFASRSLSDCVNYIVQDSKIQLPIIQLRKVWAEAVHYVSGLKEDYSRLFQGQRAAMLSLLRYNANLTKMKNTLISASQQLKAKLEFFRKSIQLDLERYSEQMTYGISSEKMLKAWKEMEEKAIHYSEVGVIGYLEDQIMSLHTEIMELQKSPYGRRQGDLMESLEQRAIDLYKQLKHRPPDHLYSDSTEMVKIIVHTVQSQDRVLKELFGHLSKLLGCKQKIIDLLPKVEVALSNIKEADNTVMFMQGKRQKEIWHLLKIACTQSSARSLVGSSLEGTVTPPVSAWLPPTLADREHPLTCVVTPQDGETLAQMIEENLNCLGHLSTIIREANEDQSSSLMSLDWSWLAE

RAW264.7 [4] = assay: Antiinflammatory activity in mouse RAW264.7 cells assessed as inhibition of LPS-induced IL-1beta protein expression at 30 uM preincubated for 30 mins followed by LPS stimulation by Western blot analysis; assay type: functional, cell-based
RAW264.7 [5] = assay: Inhibition of MAPK in mouse RAW264.7 cells assessed as inhibition of LPS-induced p38 phosphorylation at 30 uM preincubated for 30 mins followed by LPS stimulation by Western blotting analysis; assay type: cell-based
RAW264.7 [6] = assay: Inhibition of NF-kappaB activation in mouse RAW264.7 cells assessed as inhibition of LPS-induced IKKalpha phosphorylation at 30 uM preincubated for 30 mins followed by LPS stimulation by Western blotting analysis; assay type: cell-based
[7] = target: T2, Inhibitor of nuclear factor kappa-B kinase subunit beta (Mus musculus) (UniProt O88351); assay: Inhibition of IKKbeta mediated NF-kappaB activation in mouse RAW264.7 cells assessed as inhibition of TWEAK-induced p65 phosphorylation on serine 536 by Western blotting analysis; assay type: cell-based
T2 sequence (whole entry): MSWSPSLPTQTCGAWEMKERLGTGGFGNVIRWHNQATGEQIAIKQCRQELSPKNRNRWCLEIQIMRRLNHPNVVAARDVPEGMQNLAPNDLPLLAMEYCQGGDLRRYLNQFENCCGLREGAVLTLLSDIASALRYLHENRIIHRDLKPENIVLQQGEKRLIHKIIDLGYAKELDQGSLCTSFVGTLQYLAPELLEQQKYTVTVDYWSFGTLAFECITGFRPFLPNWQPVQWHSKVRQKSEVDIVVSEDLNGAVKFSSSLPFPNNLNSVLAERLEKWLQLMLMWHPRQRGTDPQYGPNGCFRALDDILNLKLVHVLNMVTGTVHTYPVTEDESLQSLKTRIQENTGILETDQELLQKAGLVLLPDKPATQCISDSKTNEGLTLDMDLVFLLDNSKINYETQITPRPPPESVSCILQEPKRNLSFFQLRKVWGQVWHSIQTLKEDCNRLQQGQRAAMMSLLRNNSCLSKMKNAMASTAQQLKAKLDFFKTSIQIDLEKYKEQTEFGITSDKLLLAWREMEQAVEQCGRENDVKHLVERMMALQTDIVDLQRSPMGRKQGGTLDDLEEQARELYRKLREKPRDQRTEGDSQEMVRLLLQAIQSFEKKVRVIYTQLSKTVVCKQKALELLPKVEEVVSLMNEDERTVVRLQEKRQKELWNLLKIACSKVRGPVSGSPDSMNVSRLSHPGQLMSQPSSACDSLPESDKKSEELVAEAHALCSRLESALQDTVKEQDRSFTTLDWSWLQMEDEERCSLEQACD

RAW264.7 [8] = assay: Antiinflammatory activity in mouse RAW264.7 cells assessed as inhibition of LPS-induced IL6 mRNA expression at 30 uM preincubated for 30 mins followed by LPS stimulation by RT-PCR analysis; assay type: functional, cell-based
RAW264.7 [9] = assay: Antiinflammatory activity in mouse RAW264.7 cells assessed as inhibition of LPS-induced COX-2 mRNA expression at 30 uM preincubated for 30 mins followed by LPS stimulation by RT-PCR analysis; assay type: functional, cell-based
[10] = target: T1, Inhibitor of nuclear factor kappa-B kinase subunit alpha (Mus musculus); assay: Inhibition of IKKalpha mediated NF-kappaB activation in mouse RAW264.7 cells assessed as TWEAK-induced degradation of TRAF2 by Western blotting analysis; assay type: cell-based
RAW264.7 [11] = assay: Inhibition of NF-kappaB activation in mouse RAW264.7 cells assessed as inhibition of LPS-induced IkappaBalpha phosphorylation at 30 uM preincubated for 30 mins followed by LPS stimulation by Western blotting analysis; assay type: cell-based
RAW264.7 [12] = assay: Inhibition of MAPK in mouse RAW264.7 cells assessed as inhibition of LPS-induced JNK phosphorylation at 30 uM preincubated for 30 mins followed by LPS stimulation by Western blotting analysis; assay type: cell-based
RAW264.7 [13] = assay: Inhibition of MAPK in mouse RAW264.7 cells assessed as inhibition of LPS-induced ERK phosphorylation at 30 uM preincubated for 30 mins followed by LPS stimulation by Western blotting analysis; assay type: cell-based
RAW264.7 [14] = assay: Antiinflammatory activity in mouse RAW264.7 cells assessed as inhibition of LPS-induced COX-2 protein expression at 30 uM preincubated for 30 mins followed by LPS stimulation by Western blot analysis; assay type: functional, cell-based
[15] = target: T1, Inhibitor of nuclear factor kappa-B kinase subunit alpha (Mus musculus); assay: Inhibition of IKKalpha mediated NF-kappaB activation in mouse RAW264.7 cells assessed as reduction in LIGHT-induced processing of p100 to p52 by Western blotting analysis; assay type: cell-based
RAW264.7 [16] = assay: Antiinflammatory activity in mouse RAW264.7 cells assessed as inhibition of LPS-induced iNOS mRNA expression at 30 uM preincubated for 30 mins followed by LPS stimulation by RT-PCR analysis; assay type: functional, cell-based
HEK293 = assay: Inhibition of IKK phosphorylation in HEK293 cells transfected with IKKbeta by Western blotting analysis; assay type: cell-based; conditions: Homo sapiens
RAW264.7 [17] = assay: Inhibition of NF-kappaB activation in mouse RAW264.7 cells assessed as inhibition of LPS-induced IKKbeta phosphorylation at 30 uM preincubated for 30 mins followed by LPS stimulation by Western blotting analysis; assay type: cell-based
RAW264.7 [18] = assay: Inhibition of NF-kappaB activation in mouse RAW264.7 cells assessed as inhibition of LPS-induced relA phosphorylation at 30 uM preincubated for 30 mins followed by LPS stimulation by Western blotting analysis; assay type: cell-based
[19] = target: T1, Inhibitor of nuclear factor kappa-B kinase subunit alpha (Mus musculus); assay: Inhibition of IKKalpha mediated NF-kappaB activation in mouse RAW264.7 cells assessed as TWEAK-induced degradation of TRAF3 by Western blotting analysis; assay type: cell-based
RAW264.7 [20] = assay: Antiinflammatory activity in mouse RAW264.7 cells assessed as inhibition of LPS-induced IL-1beta mRNA expression at 30 uM preincubated for 30 mins followed by LPS stimulation by RT-PCR analysis; assay type: functional, cell-based
RAW264.7 [21] = assay: Antiinflammatory activity in mouse RAW264.7 cells assessed as inhibition of LPS-induced TNFalpha mRNA expression at 30 uM preincubated for 30 mins followed by LPS stimulation by RT-PCR analysis; assay type: functional, cell-based
RAW264.7 [22] = assay: Antiinflammatory activity in mouse RAW264.7 cells assessed as inhibition of LPS-induced iNOS protein expression at 30 uM preincubated for 30 mins followed by LPS stimulation by Western blot analysis; assay type: functional, cell-based

SMILES: C/C=C/c1cc(OC)c(OC(C)Cc2cc(OC)c(OC)c(OC)c2)c(OC)c1 (racemic)
IC50 (RAW264.7 [2]): > 50 µM

SMILES: CCCCC/C=C\CCC(=O)NCCc1ccccc1
IC50 (RAW264.7 [2]): > 50 µM

SMILES: O=C1c2ccccc2-c2c3c(cc4ccnc1c24)OCO3 [LIRIODENINE]
IC50 (RAW264.7 [2]): 10.5 µM

SMILES: COc1c2c3c(c(OC)c1OC)-c1cc4c(cc1C[C@@H]3N(C(C)=O)CC2)OCO4
IC50 (RAW264.7 [2]): > 50 µM

SMILES: COc1cc2oc(=O)ccc2c(OC)c1OC [5,6,7-TRIMETHOXYCOUMARIN]
IC50 (RAW264.7 [2]): > 50 µM

SMILES: CC(=O)N1CCc2cc3c(c4c2[C@H]1Cc1ccccc1-4)OCO3
IC50 (RAW264.7 [2]): > 50 µM

SMILES: COc1cc2c3c(c1OC)-c1ccccc1C[C@H]3N(C(C)=O)CC2
IC50 (RAW264.7 [2]): > 50 µM

SMILES: COc1cc(/C=C/C(=O)NCCc2ccc(O)c(OC)c2)ccc1O
IC50 (RAW264.7 [2]): > 50 µM

SMILES: COc1cc2c(cc1OC)-c1c(OC)c(OC)cc3ccnc(c13)C2=O [OXOGLAUCINE]
IC50 (RAW264.7 [2]): > 50 µM

SMILES: C=CCc1cc(OC)c(OC(C)Cc2cc(OC)c(OC)c(OC)c2)c(OC)c1 (racemic)
IC50 (RAW264.7 [2]): > 50 µM

SMILES: CCCCC/C=C/C=C\C(=O)NCCc1ccccc1
IC50 (RAW264.7 [2]): > 50 µM

Further molecules by falling IC50 (RAW264.7 [2]), results first:

IC50 (RAW264.7 [2]): 35.5 µM
SMILES: CNC(=N)NCCC[C@H](N)C(=O)O [TILARGININE]

IC50 [1]: 15.5 µM
IC50 (RAW264.7 [2]): 21.6 µM
SMILES: COc1cc(O)c2c(c1)O[C@H](c1ccc(O)cc1)CC2=O [SAKURANETIN]

inhibition [3]: inactive
IC50 [1]: 21.6 µM
inhibition [7]: Active
IC50 (RAW264.7 [2]): 13.3 µM
inhibition [10]: inactive
inhibition [15]: inactive
inhibition [19]: inactive
SMILES: CCCCC/C=C\C=C\C(=O)NCCc1ccccc1
Activity (RAW264.7 [4]): Active
inhibition (RAW264.7 [5]): inactive
inhibition (RAW264.7 [6]): Active
Activity (RAW264.7 [8]): Active
Activity (RAW264.7 [9]): Active
inhibition (RAW264.7 [11]): Active
inhibition (RAW264.7 [12]): inactive
inhibition (RAW264.7 [13]): inactive
Activity (RAW264.7 [14]): Active
Activity (RAW264.7 [16]): Active
inhibition (HEK293): Active
inhibition (RAW264.7 [17]): Active
inhibition (RAW264.7 [18]): Active
Activity (RAW264.7 [20]): Active
Activity (RAW264.7 [21]): Active
Activity (RAW264.7 [22]): Active

IC50 [1]: 14.1 µM
IC50 (RAW264.7 [2]): 12 µM
SMILES: C=C[C@]1(C)C[C@H](O)[C@H]2C(=C)C(=O)O[C@@H]2[C@H]1C(=C)C

IC50 [1]: 12.2 µM
IC50 (RAW264.7 [2]): 7.3 µM
SMILES: C=C1C(=O)O[C@@H]2/C=C(\C)CC/C=C(\C)C[C@@H](O)[C@@H]12 [EUPATOLIDE]

IC50 [1]: 17.8 µM
IC50 (RAW264.7 [2]): 6.4 µM
SMILES: COc1cc2ccnc3c2c(c1OC)-c1ccccc1C3=O [LYSICAMINE]
